Measurements published in paper PMC7988496, “Sphingomyelin synthase-related protein generates diacylglycerol via the hydrolysis of glycerophospholipids in the absence of ceramide” (The Journal of Biological Chemistry, 2021).

Experiments:
SMSr-V5 = molecular target: T1, SMSr-V5 (Homo sapiens, UniProt Q96LT4); test: anti-V5 immunoprecipitate, […]:1-DG quantified by LC-MS/MS; type: biochemical
T1 construct: gene SAMD8
T1 sequence (Q96LT4 1-415): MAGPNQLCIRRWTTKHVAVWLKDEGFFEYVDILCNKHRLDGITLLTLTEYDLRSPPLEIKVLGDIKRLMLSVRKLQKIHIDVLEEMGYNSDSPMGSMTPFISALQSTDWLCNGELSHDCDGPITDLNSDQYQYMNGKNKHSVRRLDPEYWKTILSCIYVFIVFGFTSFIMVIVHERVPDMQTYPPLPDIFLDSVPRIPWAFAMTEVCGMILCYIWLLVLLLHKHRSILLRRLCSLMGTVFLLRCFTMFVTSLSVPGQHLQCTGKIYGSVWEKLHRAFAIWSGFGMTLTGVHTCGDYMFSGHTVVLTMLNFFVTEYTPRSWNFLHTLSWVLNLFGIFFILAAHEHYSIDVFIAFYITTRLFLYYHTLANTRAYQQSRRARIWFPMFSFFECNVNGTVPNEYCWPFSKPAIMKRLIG

[1] = substrate: CCCCCCCC/C=C\CCCCCCCC(=O)O[C@H](COC(=O)CCCCCCCCCCCCCCC)COP(=O)(O)O; test: DDM/CHS mixed micellar assay, DG quantified by LC-MS/MS; type: biochemical, Homo sapiens; settings: PAP activity, no ceramide, pH 7.4, 37 °C, 2 h, 0.1% DDM, 0.02% CHS, surface-dilution Km also printed as 3.92 ± 0.536 mol%
Source text: DDM/CHS mixed micellar assay, DG quantified by LC-MS/MS on 6× His-SMSr-ΔSAMD

CCCCCCCC/C=C\CCCCCCCC(=O)O[C@H](COC(=O)CCCCCCCCCCCCCCC)COP(=O)(O)O[C@@H]1[C@H](O)[C@H](O)[C@@H](O)[C@H](O)[C@H]1O [16:0/18:1-PI, 1-palmitoyl-2-oleoyl-sn-glycero-3-phosphoinositol]
anti-V5 immunoprecipitate, 16:0/18:1-DG quantified by LC-MS/MS (SMSr-V5; PI-PLC activity): The SMSr expressed in the COS-7 cells exhibited PAP and PI-PLC activities

CCCCCCCC/C=C\CCCCCCCC(=O)O[C@H](COC(=O)CCCCCCCCCCCCCCC)COP(=O)(O)O [16:0/18:1-PA, 1-palmitoyl-2-oleoyl (16:0/18:1)-PA]
anti-V5 immunoprecipitate, 16:0/18:1-DG quantified by LC-MS/MS (SMSr-V5; PAP activity): The SMSr expressed in the COS-7 cells exhibited PAP and PI-PLC activities

B1: 6× His-SMSr-ΔSAMD (Homo sapiens) (protein)
chain: HIDVLEEMGYNSDSPMGSMTPFISALQSTDWLCNGELSHDCDGPITDLNSDQYQYMNGKNKHSVRRLDPEYWKTILSCIYVFIVFGFTSFIMVIVHERVPDMQTYPPLPDIFLDSVPRIPWAFAMTEVCGMILCYIWLLVLLLHKHRSILLRRLCSLMGTVFLLRCFTMFVTSLSVPGQHLQCTGKIYGSVWEKLHRAFAIWSGFGMTLTGVHTCGDYMFSGHTVVLTMLNFFVTEYTPRSWNFLHTLSWVLNLFGIFFILAAHEHYSIDVFIAFYITTRLFLYYHTLANTRAYQQSRRARIWFPMFSFFECNVNGTVPNEYCWPFSKPAIMKRL
Km [1]: 97.4 ± 13.3 µM
